Key:
BV-2 = assay: Antiinflammatory activity in mouse BV2 cells assessed as inhibition of LPS-induced nitric oxide production pretreated for 24 hrs followed by LPS-stimulation for 24 hrs by Griess assay; type: functional, cell-based
[1] = biological target: T1, Tyrosine-protein phosphatase non-receptor type 1 (Homo sapiens) (UniProt P18031); assay: Inhibition of recombinant human GST-tagged PTP1B expressed in expressed in Escherichia coli BL21 cells at 10 uM pre-incubated for 5 mins before pNPP substrate addition and further incubated for 30 mins relative to untreated control
T1 sequence (whole entry): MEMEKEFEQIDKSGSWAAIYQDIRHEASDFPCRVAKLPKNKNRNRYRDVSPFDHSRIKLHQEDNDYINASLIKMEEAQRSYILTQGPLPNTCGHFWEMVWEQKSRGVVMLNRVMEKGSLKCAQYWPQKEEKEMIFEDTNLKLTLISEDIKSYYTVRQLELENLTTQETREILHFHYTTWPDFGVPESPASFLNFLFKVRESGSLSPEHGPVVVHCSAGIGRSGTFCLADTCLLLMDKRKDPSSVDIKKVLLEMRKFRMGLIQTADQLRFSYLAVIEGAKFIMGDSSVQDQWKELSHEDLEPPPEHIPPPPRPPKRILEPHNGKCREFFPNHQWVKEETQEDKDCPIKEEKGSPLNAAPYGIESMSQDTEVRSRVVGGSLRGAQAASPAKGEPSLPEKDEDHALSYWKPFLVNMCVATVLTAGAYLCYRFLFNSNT

HCT-116 = assay: Cytotoxicity in human HCT116 cells assessed as reduction in cell viability incubated for 72 hrs by MTT assay; type: functional, cell-based; conditions: HCT-116, 72 h
HepG2 = assay: Cytotoxicity in human HepG2 cells assessed as reduction in cell viability incubated for 72 hrs by MTT assay; type: functional, cell-based; conditions: HepG2, 72 h
BGC-823 = assay: Cytotoxicity in human BGC823 cells assessed as reduction in cell viability incubated for 72 hrs by MTT assay; type: functional, cell-based; conditions: BGC-823, 72 h
A549 = assay: Cytotoxicity in human A549 cells assessed as reduction in cell viability incubated for 72 hrs by MTT assay; type: functional, cell-based; conditions: A549, 72 h
MCF7 = assay: Cytotoxicity in human MCF7 cells assessed as reduction in cell viability incubated for 72 hrs by MTT assay; type: functional, cell-based; conditions: MCF7, 72 h

| SMILES | IC50 (BV-2) | inhibition [1] | IC50 (HCT-116) | IC50 (HepG2) | IC50 (BGC-823) | IC50 (A549) | IC50 (MCF7) |
| --- | --- | --- | --- | --- | --- | --- | --- |
| C=C(C)[C@H]1CC[C@@](C)(O)[C@@H]1/C=C/C(C)=C/[C@@H]1C[C@@]23[C@H](OCCC[C@@H]2/C(=C(/C)C=O)CC[C@]3(C)O)O1 | > 10 µM | 24.8% | > 10 µM | > 10 µM | > 10 µM | > 10 µM | > 10 µM |
| C=C(C)[C@H]1CC[C@@](C)(O)[C@@H]1/C=C/C(C)=C/[C@@H]1C[C@@]23[C@H](OCCC[C@@H]2/C(=C(\C)C=O)CC[C@]3(C)O)O1 | > 10 µM | 26.4% | > 10 µM | > 10 µM | > 10 µM | > 10 µM | > 10 µM |
| C=C(C)[C@H]1CC[C@@](C)(O)[C@@H]1/C=C/C(C)=C/[C@@H]1C[C@@]2([C@H](OC)O1)[C@H](CCCO)/C(=C(/C)C=O)CC[C@]2(C)O | > 10 µM | -0.5% | > 10 µM | > 10 µM | > 10 µM | > 10 µM | > 10 µM |
| C=C(C)[C@@H]1CC[C@](C)(O)[C@H]1/C=C/C(C)=C/[C@@H]1C[C@@]2([C@H](OC)O1)[C@H](CCCO)/C(=C(/C)C=O)CC[C@]2(C)O | > 10 µM | 23.5% | > 10 µM | > 10 µM | > 10 µM | > 10 µM | > 10 µM |
| C=C(C)[C@@H]1CC[C@](C)(O)[C@H]1/C=C/C(C)=C/[C@@H]1C[C@@]23[C@H](OCCC[C@@H]2/C(=C(/C)C=O)CC[C@]3(C)O)O1 | > 10 µM | 16.5% | > 10 µM | > 10 µM | > 10 µM | > 10 µM | > 10 µM |
| C=C(C)[C@@H]1CC[C@](C)(O)[C@H]1/C=C/C(C)=C/[C@@H]1C[C@@]2([C@H](OC)O1)[C@H](CCCO)/C(=C(\C)C=O)CC[C@]2(C)O | > 10 µM | -1.8% | > 10 µM | > 10 µM | > 10 µM | > 10 µM | > 10 µM |
| C=C(C)[C@@H]1CC[C@](C)(O)[C@H]1/C=C/C(C)=C/[C@@H]1C[C@@]23[C@H](OCCC[C@@H]2/C(=C(\C)C=O)CC[C@]3(C)O)O1 | > 10 µM | 33.4% | > 10 µM | > 10 µM | > 10 µM | > 10 µM | > 10 µM |
| C=C(C)[C@H]1CC[C@@](C)(O)[C@@H]1/C=C/C(C)=C/[C@@H]1C[C@@]2([C@H](OCC)O1)[C@H](CCCO)/C(=C(\C)C=O)CC[C@]2(C)O | > 10 µM | 32.9% | > 10 µM | > 10 µM | > 10 µM | > 10 µM | > 10 µM |
| C=C(C)[C@H]1CC[C@@](C)(O)[C@@H]1/C=C/C(C)=C/[C@@H]1C[C@@]2([C@H](OC)O1)[C@H](CCCO)/C(=C(\C)C=O)CC[C@]2(C)O | > 10 µM | 15.2% | > 10 µM | > 10 µM | > 10 µM | > 10 µM | > 10 µM |
